Patent US20190030036A1, “PHOSPHODIESTERASE INHIBITOR TREATMENT” (Cyrano Therapeutics, Inc., priority 2013, published 2019)

Assays:
hyposmic patients = assay: Smell acuity in open label trial of inhalable/nasal PDE inhibitor (Examples 3, 4); format: in vivo, human; conditions: nasal theophylline, not more than 500 μg, 1 month
Description: Hyposmic patients for whom the etiology of smell loss is not associated with head injury or allergic rhinitis are enrolled in an open label trial of inhalable theophylline. Patients are started at an initial dose of not more than 500 μg formulated as a liquid spray or dry powder to be delivered as a metered dose. Initially only local patients are enrolled so that quicker dose titration is achieved. Groups of 5 patients are started on not more than 500 μg of theophylline and continued for 1 month.
Patients are tested for improvement in smell acuity using the standard forced choice technique using four odors as described in Example 1. Additionally, subjective measurements of smell function are obtained using a scale from 0-100 as described in Example 1. Blood samples are also drawn to ascertain blood theophylline level to gauge its relationship to the expected recovery of smell.
Hyposmic patients for whom the etiology of smell loss is not associated with head injury or allergic rhinitis are enrolled in an open label trial of an inhalable PDE1 inhibitor. […]

[1] = system: patients with hyposmia and hypogeusia; assay: Olfactometry (DT, RT, ME, HR for 4 odors) (Example 8); format: in vivo, human; conditions: intranasal theophylline vs before treatment or after oral theophylline
Text: (§1) Measurements included determination of detection thresholds (DTs), recognition thresholds (RTs), magnitude estimation (ME), and hedonic response (HR) for 4 odors (e.g., pyridine [dead fish], nitrobenzene [bitter almond], thiophene [petroleum], and amyl acetate [banana oil]) (olfactometry) and for 4 tastants (e.g., sodium chloride [salt], sucrose [sweet], […] [sour], and urea [bitter]) (gustometry).

cAMP = assay: Parotid saliva cAMP after oral theophylline (Example 2); format: in vivo, human; conditions: for cAMP: parotid saliva
Description: Parotid saliva was collected from each patient by application of a Lashley cup over Stensen's duct with lingual stimulation by placement of concentrated lemon juice. Saliva was collected in plastic tubes and stored at −20° C. until assayed. cAMP and cGMP were measured in saliva by a sensitive 96 plate spectrophotometric assay (R&D Systems, Minneapolis, Minn.).
All patients were placed in a fixed design open label clinical trial with treatment with oral theophylline. Treatment consisted of fixed treatment periods of two-eight months with sequential doses of the drug at 200 mg, 400 mg and 600 mg. At termination of each of these intervals, patients returned to study site for reevaluation. At the end of each interval subjective responses to treatment were measured with a modification of the 0-100 scale previously used. Subjective responses to treatment were graded on a sliding scale from −100−0-+100 with patients recording improvement (+0-+100), no improvement (0) or worsening (0-−100) of their overall smell function. If overall smell function improved ≥5% they were considered to improve clinically (1). If smell function improved <5% they were considered not to improve (1). At the end of each interval subjective measurements of smell function, measurements of DT, RT, ME and H and measurements of parotid saliva for levels of cAMP and cGMP were obtained. In addition, blood plasma was obtained by venipuncture, placed in ice into zinc free tubes which contained 100 mg zinc free heparin, centrifuged at 3000 rpm for 10-20 min, the plasma transferred to plastic PCR tubes and stored at −20° C. until assayed. Theophylline was assayed by a fluorescence polarization assay (Abbott, Chicago, Ill.), as previously described.
Data for the cyclic nucleotides from these 31 patients was not analyzed until the entire study of the 312 patients in Example 1 was assembled and analyzed in its entirety. After completion of these analyses, all data for parotid saliva cAMP and cGMP from all patients in whom salivary cAMP and cGMP were obtained were assembled. Levels of salivary cyclic nucleotides varied widely. Initially, without external criteria, there was no way to understand these disparate data. […] In a similar manner, measurements of each patient's plasma theophylline level at each dosage of theophylline (at 200 mg, 400 mg, 600 mg of theophylline) were categorized. The two patient groups were also analyzed post hoc with respect to type of smell loss and etiology of smell loss.

[2] = system: patients with hyposmia and hypogeusia; assay: Gustometry (DT, RT, ME, HR for 4 tastants) (Example 8); format: in vivo, human
Text: as §1

[3] = Plasma theophylline level, intranasal theophylline pilot study (Example 7); format: in vivo, human; conditions: intranasal theophylline 20 μg per naris once a day; eight patients
Description: Blood was obtained by venipuncture to collect plasma and red blood cells used to measure trace metals (Cu, Zn, Mg), various enzymes, theophylline and other chemical moieties.

patients with hyposmia = assay: Subjective taste and smell response, intranasal theophylline pilot study (Example 7); conditions: intranasal theophylline 20 μg per naris once a day, four weeks; six of first eight patients
Description: These patients were previously treated with oral theophylline or were switched from oral theophylline to intranasal theophylline at the start of the study. Selection for inclusion in the intranasal study was based upon several criteria. 1) non-response to oral theophylline; 2) severe side effects with oral theophylline that prevented reaching a dose of sufficient strength to restore smell function; and/or 3) preference for intranasal medication over oral medication.
Subjective responses to treatment were obtained independent of any interaction with the clinical staff by using a scale of 0-100 to measure response of taste function and smell function to treatment with 0 indicating no response, 100 indicating return to normal function and intermediate numbers indicating an intermediate response.
The patients inserted a plastic syringe containing 0.4 ml of fluid (20 μg theophylline) into each naris once a day. […] The drug dose was delivered through a plastic nipple which fitted snugly onto the filled syringe which was attached directly to the nipple. One nipple was supplied for each set of two syringes in each application kit. The patient fitted the nipple on one syringe, placed the nipple securely into the lower naris and injected the contents of the syringe directly into the lower vault of one naris accompanied by a modest inhalation. […]

For `Cn1c(=O)c2[nH]cnc2n(C)c1=O` [theophylline], the “recovery of smell acuity compared with oral administration” value (hyposmic patients) was “at least an equivalent recovery of smell acuity”, the “DTs and RTs for each odor” value [1] was “lower (more sensitive)” and the “Magnitude estimations for each odor” value [1] was “higher (more intense)”. The “mean serum theophylline level” value (during intranasal theophylline 20 μg/d in each naris) was 0.0 (0.0), the “mean (SEM) serum theophylline level” value (human, in vivo, po) was 6.4 (2.0) mg/L and the “increase of saliva cAMP levels above baseline” value (cAMP; oral theophylline 200 mg, improved patients, not significant) was 10%. For the same compound, the “increase of saliva cAMP levels over baseline” value (cAMP; oral theophylline 400 mg, improved group, not statistically significant) was 40%, the “increase of saliva cAMP levels above initial values” (cAMP; oral theophylline 600 mg, improved patients, significant) was 67% and the cAMP (cAMP; oral theophylline 200 mg, patients with improved smell function (16)) was 0.96 ± 0.13 pmol/mL. The cAMP (cAMP; oral theophylline 200 mg, patients with unimproved smell function (9)) was 0.78 ± 0.26 pmol/mL, the cAMP (cAMP; oral theophylline 400 mg, patients with improved smell function (12)) was 1.22 ± 0.33 pmol/mL and the cAMP (cAMP; oral theophylline 400 mg, patients with unimproved smell function (5)) was 0.95 ± 0.26 pmol/mL. The cAMP (cAMP; oral theophylline 600 mg, patients with unimproved smell function (9)) was 0.56 ± 0.21 pmol/mL, the “Magnitude estimations for all tastants” value ([2]; intranasal theophylline vs before any treatment or after oral theophylline) was “higher (more intense)” and the “DTs and RTs for all tastants” value ([2]; intranasal theophylline vs before treatment or after oral theophylline) was “lower (more sensitive)”. The plasma theophylline levels [3] was “zero” and the “patients with subjective improvement in smell function” value (patients with hyposmia) was 75%.
